Experimental data: patent publication EP0559700B1, “NOVEL PILOCARPINE DERIVATIVES AND PROCESS FOR THEIR PREPARATION” (Santen Oy, priority 1990, dated 1992)

Tests used:
[1] = Stability of the compounds: buffer hydrolysis (half-times, shelf-life); assay type: physicochemical
Protocol: The stability of the test compounds were tested with buffer hydrolyses. The ionic strength (µ) of the buffers was 0.5, the pH-values used 4.2, 6.0, 7.4 and 9.0 and the temperatures used 37°C, 50 °C, 60 °C and 70 °C.
The half-times T½ calculated on basis of the degradation constant k obtained for each studied compound (T½=0.693/k; k = 2.303 x kk, wherein kk is the angular coefficient of the plot which illustrates the logarithm of the remaining ester as a function of time) in a buffer solution of said pH, are indicated in the Table I below, which values refer to half-times at 37°C.
The storage stability of the derivatives under different storage conditions may be estimated by determining the degradation constants at different temperatures and calculating the degradation constant k at the desired temperature from the equation of the plot corresponding to the Arrhenius equation (1), wherein log k is given as a function of [1/T]. Log k = Log A -(Ea)/(2.303R)x(1)/(T) [formula]
From the degradation constant (k) obtained at the desired temperature the shelf-life-time t10% (t10% = 0.104/k) which indicates the time during which 10% of the drug has degraded may be calculated. By way of example it may be mentioned that the t10%-time of O,O'-dipropionyl (1,4-xylylene) bispilocarpate at 4 °C is almost 500 days.

[2] = Lipophilicity: partition coefficient (octanol-buffer) and capacity factor by RP-HPLC; assay type: physicochemical; conditions: for chromatographic logP: rp-hplc, reverse phase HPLC, 22°C, read-out: Capacity factor (22°C) k' (converted)
From the text: The lipophilicity of the compounds were studied by determining the partition coefficients (P) of the compounds at a pH of 7.40. The measurements were made either in an octanol-buffer mixture by determining the concentration of the compound to be studied in the buffer phase by HPLC. The partition coefficients of the very lipophilic compounds were, however, determined by reverse phase (RP) liquid chromatography (HPLC) from the retention time (Beckmann 116 pump and 166 UV detector; Marathon autom. sample feeder). […] From the results it can be seen that the compounds of the invention are considerably more lipophilic than the pilocarpine.

[3] = Enzyme hydrolysis in plasma/buffer pH 7.4 mixture (80%-20%); assay type: in vitro ADME; conditions: plasma/buffer pH 7.4 (80%-20%), 37°C; for half-life: 80% plasma/buffer, read-out: half-times (T½) in plasma (80%), 37°C
Protocol: The half-times of enzyme hydrolysis of the novel bispilocarpates according to the invention and of known pilocarpic acid diesters were determined in a plasma/buffer pH 7.4-mixture (80%-20%) at 37°C. The degradation constants (k) for the compounds tested and determined from the plot showing the logarithm of remaining diester as a function of time and the half-lives T½ are shown in the Table II below. From the results it may be seen that in […] the stable test compound degrades under the influence of an enzyme (esterase) to a O,O'-dihydrogen bispilocarpate intermediate, which spontaneously degrades at pH 7.40 to pilocarpine. Consequently the effect of the bispilocarpate intermediate on the rate of formation of pilocarpine is very significant. The formation of pilocarpine was almost complete irrespective of the epimerization possibility of the intermediate. The amount of isopilocarpine formed varied from 0 to 10%, as also the pilocarpine formed epimerized, if the duration of hydrolysis was very long.

[4] = Corneal permeability in a diffusion chamber; assay type: in vitro ADME, rabbit; conditions: rabbit eye cornea, diffusion chamber, epithelium side to endothelium side; read-out: Permeability coefficient Papp
From the text: The corneal permeability of pilocarpine hydrochloride and its most promising prodrug derivatives as evaluated from the tests described above were studied in a diffusion chamber, wherein the migration of the compound from the delivering phase (epithelium side) thorugh the cornea to the acceptor side (endothelium side) of the diffusion chamber. In the study, rabbit eye cornea was used. From the samples taken from the acceptor side of the diffusion chamber, both the concentration of the prodrug and the liberated drug were determined in the acceptor phase with HPLC. Thus the rate of degradation of the prodrug in the cornea was determined. The permeability coefficients (Papp, cm/s) calculated from the permeability rate (μmol/min), their […] deviations (RSD) and the number of tests, are given in the Table II below.

[5] = pKa-value determination by titration in a water-ethanol mixture (50%-50%); assay type: physicochemical; conditions: water-ethanol 50:50; titration in water-ethanol mixture (50%-50%)
[6] = Lipophilicity: partition coefficient (octanol-buffer) and capacity factor by RP-HPLC; assay type: physicochemical; conditions: pH 5.0
[7] = administered locally as eyedrops; cited from earlier work
[8] = buffer, pH 4.2, 50 °C, pH 4.20, read-out: Chemical hydrolysis t½, pH 4.20 (converted)
[9] = buffer, pH 7.4, 50 °C, pH 7.40, read-out: Chemical hydrolysis t½, pH 7.40 (converted)
[10] = buffer, 50 °C, pH 6.00, read-out: Chemical hydrolysis t½, pH 6.00 (converted)

Row | half-life ([1]; buffer pH 6.00, ionic strength 0.5, 37°C, read-out: Half-times in buffers at 37°C, T½, pH 6.00 (converted)) [days] | half-life ([1]; buffer pH 9.00, ionic strength 0.5, 37°C, read-out: Half-times in buffers at 37°C, T½, pH 9.00 (converted)) [days] | half-life ([1]; pH 4.2, buffer pH 4.20, ionic strength 0.5, 37°C, read-out: Half-times in buffers at 37°C, T½, pH 4.20 (converted)) [days] | half-life ([1]; pH 7.4, buffer pH 7.40, ionic strength 0.5, 37°C, read-out: Half-times in buffers at 37°C, T½, pH 7.40 (converted)) [days] | Partition coefficient log P ([2]; determined with an octanol-buffer-mixture, pH 7.40, 22 °C) | chromatographic logP [2] | half-life [3] [days] | Degradation coefficient (k) in plasma (80%), 37°C [3] [min⁻¹] | Papp [4] [×10⁻⁶ cm/s] | pKa [5] | half-life [1, 8] [days] | half-life [1, 9] [days] | half-life [1, 10] [days] | logD [6] | SMILES | pilocarpine dose absorbed by the eye [7] | pilocarpine dose absorbed in the blood stream [7]
1 | 352 | 14.1 | 2640 | 148 | 4.2015^1 | 0.392 | 0.00972 | 0.04998 | 15.8 | 6 |  |  |  |  | CC[C@H](C(=O)OCc1ccc(COC(=O)[C@@H](CC)[C@H](COC(=O)C2CC2)Cc2cncn2C)cc1)[C@H](COC(=O)C1CC1)Cc1cncn1C [Example 13, O,O'-Dicyclopronylcarbonyl (1,4-xylylene) bispilocarpate] |  | 
2 |  |  |  |  |  |  | 0.0104 |  |  | 6 | 134 | 27.7 | 142 | 0.88 | CC[C@H](C(=O)OCCCCCCOC(=O)[C@@H](CC)[C@H](COC(=O)C1CC1)Cc1cncn1C)[C@H](COC(=O)C1CC1)Cc1cncn1C [Example 20, O,O'-Dicyclopropylcarbonyl (1,6-hexylene) bispilocarpate] |  | 
3 |  |  |  |  |  |  | 0.00903 |  |  |  | 193 | 23 | 98.7 | 0.401 | CC[C@H](C(=O)OCCCCCOC(=O)[C@@H](CC)[C@H](COC(=O)C1CC1)Cc1cncn1C)[C@H](COC(=O)C1CC1)Cc1cncn1C [Example 21, O,O'-Dicyclopropylcarbonyl (1,5-pentylene) bispilocarpate] |  | 
4 |  |  |  |  |  | -0.392 |  |  | 4.1 |  |  |  |  |  | CC[C@@H]1C(=O)OC[C@@H]1Cc1cncn1C [Pilocarpine, (3S-cis)-3-ethyl-dihydro-4-[(1-methyl-1H-imidazol-5-yl)methyl]-2(3H)-furanone] | about 1% | about 70%
